According to patent publication US9879010B2, “Pyrrolo[2,3-b]pyridin-4-yl-amines and pyrrolo[2,3-b] pyrimidin-5-yl-amines as Janus kinase inhibitors” (Incyte Corporation, priority 2004, dated 2018):

How the values were obtained:
[1] = tested on: NOD mouse model of autoimmune type 1 diabetes; conditions: cited from earlier work
[2] = tested on: STAT3; test: Immunohistochemistry of ear sections in murine DTH model; format: in vivo, mice; conditions: after the sensitization phase
Protocol: To determine if topical administration of the test compound was sufficient to inhibit activation of the Jak-STAT pathway, immunohistochemistry was carried out on fixed tissues.

[3] = tested on: murine skin contact delayed-type hypersensitivity (DTH) response; test: Murine DTH model for dermatitis, ear swelling; format: in vivo, mice
Protocol: Certain compounds herein were also tested for their efficacies (of inhibiting Jak targets) in the T-cell driven murine delayed hypersensitivity test model. The murine skin contact delayed-type hypersensitivity (DTH) response is considered to be a valid model of clinical contact dermatitis, and other T-lymphocyte mediated immune disorders of the skin, such as psoriasis (Immunol Today. 1998 January; 19(1):37-44). Murine DTH shares multiple characteristics with psoriasis, including the immune infiltrate, the accompanying increase in inflammatory cytokines, and keratinocyte hyperproliferation. Furthermore, many classes of agents that are efficacious in treating psoriasis in the clinic are also effective inhibitors of the DTH response in mice (Agents Actions. 1993 January; 38(1-2):116-21).
Test compound 3-{(3R,4R)-4-methyl-3-[methyl-(7H-pyrrolo[2,3-d]pyrimidin-4-yl)amino]-piperidin-1-yl}-3-oxo-propionitrile (see, e.g., WO 01/42246, WO 02/00661, or WO 03/48162) was administered continuously using mini-osmotic pumps to deliver the compound at 150 mg/kg/d. The inflammatory response was monitored by measuring the ear thickness prior to and after immune challenge. Differences in ear thickness were calculated for each mouse and then averaged for the group. Comparisons were made between vehicle and the treated groups in the context of the negative controls (challenged without sensitization) and therapeutic positive control mice (treated with dexamethasone or other efficacious agent).
A further murine DTH experiment was conducted by treating mice with 3-{(3R,4R)-4-methyl-3-[methyl-(7H-pyrrolo[2,3-d]pyrimidin-4-yl)amino]-piperidin-1-yl}-3-oxo-propionitrile either systemically or topically (3%, BID) after the sensitization phase was complete.

[4] = tested on: IL-6-dependent MM cell lines; conditions: cited from earlier work
[5] = tested on: myeloid dendritic cells (DCs); conditions: CD40-induced maturation of myeloid DCs; cited from earlier work
[6] = systemic, continuous by mini-osmotic pumps, 150 mg/kg/d

## COc1cc2ncnc(Nc3ccc(O)cc3)c2cc1OC [JANEX-1]
[1]
  onset of diabetes: delayed the onset of diabetes

## C[C@@H]1CCN(C(=O)CC#N)C[C@@H]1N(C)c1ncnc2[nH]ccc12 [3-{(3R,4R)-4-methyl-3-[methyl-(7H-pyrrolo[2,3-d]pyrimidin-4-yl)amino]-piperidin-1-yl}-3-oxo-propionitrile]
[2]; systemic administration
  number of infiltrating cells: visibly reduced
  phosphorylation of STAT3 in all cell types: inhibited
[2]; topical administration
  number of infiltrating cells: visibly reduced
  phosphorylation of STAT3 in all cell types: inhibited
[3]; systemic administration during the challenge phase, after sensitization phase complete (FIG. 1)
  inhibition of ear swelling: > 50%
[3]; [6]
  histological analysis of hematoxolyin and eosin stained tissue sections: near complete inhibition of ear swelling
  inhibition of ear swelling: 95%
[3]; topical administration (3%, BID) during the challenge phase, after sensitization phase complete (FIG. 1)
  inhibition of ear swelling: > 50%

## N#C/C(=C\c1ccc(O)c(O)c1)C(=O)NCc1ccccc1 [tyrphostin AG490]
[4]
  JAK2 kinase activity and ERK2 and STAT3 phosphorylation: inhibited
  apoptosis: induced
  cell proliferation: suppressed

## COc1cc2ncnc(Nc3ccc(O)c(Br)c3)c2cc1OC [WHI-P-154]
[5]
  CD40-induced JAK3 activity, costimulatory molecule expression, IL-12 production, allogeneic stimulatory capacity: prevented these effects
